Laboratory results: paper PMC5635289, “Differential Effects of Angelicin Analogues on NF-κB Activity and IL-8 Gene Expression in Cystic Fibrosis IB3-1 Cells” (Mediators of Inflammation, 2017)

How the values were obtained:
IL-8 mRNA = assay: RT-qPCR quantification of IL-8 mRNA in TNF-α-induced IB3-1 cells; type: cell-based, human; conditions: for inhibition at 1 µM / inhibition at 10 µM: Homo sapiens, IB3-1, 24 h, TNF-α-induced IB3-1 cells, RT-qPCR, na = not active at the used concentrations; for inhibition at 1 µM: 1 μM compound; for inhibition at 10 µM: 10 μM compound; for Inhibition of IL-8 expression (range given): IB3-1 cells, low concentrations (1–10 μM), concentration not specified per value
Experimental: Monolayers of 60% confluent IB3-1 cells were seeded in 6- or 12-well plates in LHC-8 medium in the presence of 5% FBS. After 24 h, pure derivatives were added, 5 h before stimulation with TNF-α 80 ng/ml (ORF Genetics, Kopavogur, Iceland), and incubated for a further 24 h. Total RNA was extracted using TRIzol Reagent (Sigma-Aldrich, St. Louis, MO) following the manufacturer's instructions. Reverse transcription (RT) was performed using Reverse Transcription System kit (Promega, Madison, WI): 1 μg of total RNA was reverse transcribed in the presence of 5 mM MgCl2, 1X reverse transcription buffer (10 mM Tris-HCl, 50 mM KCl, and 0.1% Triton X-100), 1 mM each dNTPs, 20 U recombinant Rnasin Ribonuclease Inhibitor, 15 U AMV Reverse Transcriptase, and 0.5 μg oligo(dT)15 primers in a total volume of 20 μl for 10 min at 70°C and 60 min at 42°C. The resulting cDNA was quantified by relative quantitative real-time PCR (real-time qPCR). For real-time qPCR, 1 μl of cDNA was used for each SYBR Green reaction to quantify the relative expression of IL-8. Each 25 μl of total reaction volume contained 1 μl of cDNA, 10 pmol of primers, 1 iQTM SYBR Green Supermix (Bio-Rad Laboratories Inc., Hercules, CA). Real-time PCRs were performed for a total of 40 cycles (denaturation, 95°C for 10 s; annealing, 68°C for 30 s for IL-8, 65°C for 30 s for IL-6; elongation, 72°C for 60 s) using an iCycler IQ5 (Bio-Rad Laboratories Inc., Hercules, CA). Primer sequences were as follows: IL-8 forward: 5′-GTGCAGTTTTGCCAAGGAGT-3′ and IL-8 reverse: 5′-TTATGAATTCTCAGCCCTCTTCAAAAACTTCTC-3′. The relative proportions of each amplified template were determined utilizing the threshold cycle (CT) value for each performed PCR. The DDCt method was used to compare gene expression data. Each sample was quantified in duplicate. Changes in mRNA expression level were calculated following normalization with the GAPDH calibrator gene (housekeeping gene) and expressed as fold change over untreated samples [24]. Duplicates of negative controls (no template cDNA) were also run with every experimental plate to assess specificity and indicate potential contamination.
With the aim to study the effective anti-inflammatory properties of these new psoralen derivatives, we decided to further characterize the TMA derivatives for their potential activities on the expression of IL-8 gene, known to be involved in the lung inflammatory process in CF. […] More specifically, we were first interested in identifying compounds with low antiproliferative activity, but effective in downmodulating inflammatory gene expression without achieving a full suppression of these genes. We therefore employed IB3-1 cystic fibrosis cells, incubated for 5 h with two concentrations (1 μM and 10 μM) of selected compounds, and then treated with TNF-α ([…]). In the IB3-1 cystic fibrosis cellular model, NF-κB-dependent genes, including the gene encoding for the proinflammatory protein IL-8, generally are activated following infection with P. aeruginosa or treatment with TNF-α or IL-1β [26, 28, 31]. This feature is very important in the pathophysiology of CF, since several clinical complications are caused by exacerbation of this inflammatory response. After 1 day of incubation, cellular RNA was isolated for RT-qPCR analysis. All the TMA analogues found to be active in inhibiting NF-κB/DNA interactions were analyzed for their effects on inhibition of TNF-α-induced accumulation of IL-8 mRNA.

NF-κB p50 [1] = target: T1, NF-κB p50 (Homo sapiens, UniProt P19838); assay: EMSA, inhibition of NF-κB/DNA interactions; type: binding; conditions: for Inhibition of NF-κB/DNA complex (MIC): NF-κB p50 and 32P-labeled NF-κB oligonucleotide, MIC = minimal inhibitory concentration, 12.5 μM was the lowest concentration used
T1 construct: This assay was performed using purified NF-κB p50; purchased Promega
T1 sequence (P19838 1-433 limits assumed): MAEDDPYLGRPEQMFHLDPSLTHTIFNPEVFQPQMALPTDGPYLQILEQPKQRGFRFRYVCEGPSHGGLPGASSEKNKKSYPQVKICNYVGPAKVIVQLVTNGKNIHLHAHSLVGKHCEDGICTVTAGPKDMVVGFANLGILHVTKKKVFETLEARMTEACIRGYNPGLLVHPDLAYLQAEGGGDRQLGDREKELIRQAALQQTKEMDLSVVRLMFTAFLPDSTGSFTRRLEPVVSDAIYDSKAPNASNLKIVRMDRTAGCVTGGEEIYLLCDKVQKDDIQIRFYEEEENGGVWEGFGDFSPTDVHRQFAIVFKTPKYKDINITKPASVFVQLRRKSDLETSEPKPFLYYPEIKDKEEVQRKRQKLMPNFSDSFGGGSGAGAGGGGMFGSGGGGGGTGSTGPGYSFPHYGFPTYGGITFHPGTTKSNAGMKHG
Experimental: Electrophoretic mobility shift assays were performed using double-stranded ^32P-labeled oligonucleotides as target DNA. Binding reactions were set up as previously described in binding buffer (10% glycerol, 0.05% NP-40, 10 mM Tris-HCl pH 7.5, 50 mM NaCl, 0.5 mM DTT, and 10 mM MgCl2), in the presence of 0.1 μl/20 μl of NF-κB p50 (50 gsu) (Promega, Madison, WI, USA) and 0.25 ng of labeled oligonucleotide, in a total volume of 20 μl. After 30 min binding at room temperature, samples were electrophoresed at constant voltage (200 V for 30 min) through a low ionic strength (0.25 TBE buffer) (1 TBE/40.089 M Tris-borate, 0.002 M EDTA) on 6% polyacrylamide gels until the tracking dye (bromophenol blue) reached the bottom of a 16 cm slab. Gels were dried and exposed for autoradiography with intensifying screens at […]. In these experiments, DNA/protein complexes migrate through the gel with slower efficiency. In studies on the inhibitors of protein/DNA interactions, addition of the reagents was as follows: (i) nuclear factors, (ii) active principles, (iii) binding buffer, and (iv) labeled oligonucleotides mimicking the binding sites for TF to be modulated. The nucleotide sequence of double-stranded target DNA utilized in these experiments was 5′-CGC TGG GGA CTT TCC ACG G-3′ (sense strand, NF-κB). The synthetic oligonucleotides utilized in this study were purchased from Sigma Genosys (Sigma Genosys, Cambs, UK). To calculate the effective concentrations, three different autoradiograms obtained from different time exposures were scanned and compared to control EMSA performed without addition of angelicin analogues (two independent experiments were performed).
The effects of TMA derivatives on NF-κB- (nuclear factor-kappaB-) mediated induction of proinflammatory genes was verified first in vitro by electrophoretic mobility shift assay (EMSA) with the aim to verify and quantify the possible inhibition of NF-κB/DNA interactions. This assay was performed using purified NF-κB p50 and ^32P-labeled target NF-κB double-stranded oligonucleotide mimicking the NF-κB consensus sequence present within the IL-8 gene promoter.

IB3-1 cells = assay: Cell proliferation assay on IB3-1 cells; type: cell-based; conditions: Homo sapiens, cell number/ml after 48 h of treatment
Experimental: Monolayers of 60% confluent IB3-1 cells were seeded in 24- or 12-well plates in LHC-8 medium in the presence of 5% FBS. After 24 h, TMA derivatives were added at serial dilutions and incubated for further 2-3 days. The effects of compounds (TMA derivatives) on the cell proliferation were analyzed as elsewhere described. A first analysis was performed with serial dilutions to obtain 50 μM, 200 μM, and 800 μM solutions. In order to determine IC50 values, the following concentrations were used 12.5, 25, 50, 100, 200, and 800 μM. In order to prepare the cells for counting, they were washed with PBS 1X and detached with trypsin/EDTA. Cells were suspended in physiological solution and counted with a Z2 Coulter Counter (Coulter Electronics, Hialeah, FL, USA). The cell number/ml was determined as IC50 after 2 days of culture, when untreated cells are in log phase of cell growth.
In order to obtain preliminary information on the biological properties of TMA derivatives, their effects on cell growth were examined on IB3-1 cell line, excellent biological model to study new potential anti-inflammatory molecules. The use of this cell line to study the expression of proinflammatory molecules under a variety of stimuli is well established. Monolayers of 60% confluent IB3-1 cells were seeded in 12-well plate in LHC-8 medium with 5% FBS. After 24 h, compounds were added at different concentrations and the cell number/ml was determined after further 48 h of culture.

NF-κB p50 [2] = target: T1, NF-κB p50; set-up: method as in PMID 21148790; conditions: previous studies; cited from earlier work

| Inhibition of NF-κB/DNA complex (MIC) (NF-κB p50 [1]) | Effect on NF-κB/DNA interactions at 100 μM (NF-κB p50 [1]; 100 μM compound) | SMILES | inhibition at 1 µM (IL-8 mRNA) [%] | inhibition at 10 µM (IL-8 mRNA) [%] | Inhibition of IL-8 expression (range given) (IL-8 mRNA) | IC50 (IB3-1 cells) [µM] | Concentration inhibiting NF-κB/DNA interactions in EMSA (NF-κB p50 [2]) [µM] |
| --- | --- | --- | --- | --- | --- | --- | --- |
| <12.5 (^∗) μM |  | Cc1coc2c1c(C)cc1oc(=O)cc(C)c12 [Compound 32] | 73 | 52 |  | > 800 |  |
| 25 to 50 µM |  | Cc1cc2c(CO)cc(=O)oc2c2c(C)coc12 [Compound 8] | 51 | 52 | 52–83% | 398 |  |
| <12.5 (^∗) μM |  | Cc1oc2c(c(C)cc3oc(=O)cc(C)c32)c1C [Compound 34] | 68 | 47 |  | > 800 |  |

Continued, compound first:

| SMILES | Inhibition of NF-κB/DNA complex (MIC) (NF-κB p50 [1]) | Effect on NF-κB/DNA interactions at 100 μM (NF-κB p50 [1]; 100 μM compound) | inhibition at 1 µM (IL-8 mRNA) [%] | inhibition at 10 µM (IL-8 mRNA) [%] | Inhibition of IL-8 expression (range given) (IL-8 mRNA) | IC50 (IB3-1 cells) [µM] | Concentration inhibiting NF-κB/DNA interactions in EMSA (NF-κB p50 [2]) [µM] |
| --- | --- | --- | --- | --- | --- | --- | --- |
| Cc1cc2c(C)cc3oc(=O)cc(C)c3c2o1 [Compound 33] | 12.5 to 25 µM |  | 66 | 67 | 52–83% | > 800 |  |
| O=c1cc(CO)c2ccc3sccc3c2o1 [Compound 16] | 25 to 50 µM |  | 18 | 21 |  | > 800 |  |
| Cc1cc(=O)oc2c1cc(C)c1occ(CBr)c12 [Compound 5] | 12.5 to 25 µM |  | 33 | 31 |  | 486 |  |
| Cc1cc(=O)oc2c1ccc1oc(CN)cc12 [Compound 26] | 50 to 100 µM |  | 55 | 83 | 52–83% | 90.8 |  |
| Cc1cc2c(o1)c1cc(C)oc1c1c(C)cc(=O)oc21 [Compound 30] | 12.5 to 25 µM |  | 10 |  |  | > 800 |  |
| Cc1cc(=O)oc2c1cc(C)c1occ(C)c12 [TMA, 4,6,4′-trimethylangelicin, reference compound] | higher than 20 μM | able to suppress NF-κB/DNA interactions |  |  |  | 185 ± 30 | 100 |
